Results: the supplement of paper PMC10307832

Key:
Assay in all cases: relative viability (nuclei count vs DMSO), 5 days (fraction); higher = more cells survive
CAL-12T = test system: CAL-12T
In short: (§1)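 The day after seeding in 1536-well plates, lung cancer cell lines were treated by pin tool with a single drug, or with a fixed anchor-drug dose together with five library-drug doses (not always all listed) in √10 steps. After 5 days, a combined fix-and-stain solution (final 0.05% Triton X-100, 1% formaldehyde, 1 ug/ml Hoechst) was added. Nuclei counted on 4× images gave relative viability as treated counts over vehicle counts, reported as the median of duplicate plates.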

EKVX = test system: EKVX
In short: as §1

H3255 = test system: H3255
In short: as §1

HCC-15 = test system: HCC-15
In short: as §1

HCC-827 = test system: HCC-827
In short: as §1

LCLC-97TM1 = test system: LCLC-97TM1
In short: as §1

LK-2 = test system: LK-2
In short: as §1

NCI-H1355 = test system: NCI-H1355
In short: as §1

NCI-H1650 = test system: NCI-H1650
In short: as §1

NCI-H1734 = test system: NCI-H1734
In short: as §1

NCI-H1755 = test system: NCI-H1755
In short: as §1

NCI-H1975 = test system: NCI-H1975
In short: as §1

NCI-H2228 = test system: NCI-H2228
In short: as §1

NCI-H2342 = test system: NCI-H2342
In short: as §1

NCI-H2405 = test system: NCI-H2405
In short: as §1

NCI-H322M = test system: NCI-H322M
In short: as §1

NCI-H520 = test system: NCI-H520
In short: as §1

NCI-H661 = test system: NCI-H661
In short: as §1

PC-14 = test system: PC-14
In short: as §1

PC-3 [JPC-3] = test system: PC-3 [JPC-3]
In short: as §1

RERF-LC-KJ = test system: RERF-LC-KJ
In short: as §1

SMILES: Nc1ccn([C@@H]2O[C@H](CO)[C@@H](O)[C@@H]2O)c(=O)n1 [Cytarabine] + CC(=O)c1c(C)c2cnc(Nc3ccc(N4CCNCC4)cn3)nc2n(C2CCCC2)c1=O [Palbociclib] (partner 0.5 µM)
- relative viability (CAL-12T; first compound 0.005 µM): 0.341
- relative viability (CAL-12T; first compound 0.01581 µM): 0.389
- relative viability (CAL-12T; first compound 0.05 µM): 0.421
- relative viability (CAL-12T; first compound 0.1581 µM): 0.193
- relative viability (CAL-12T; first compound 0.5 µM): 0.146
- relative viability (EKVX; first compound 0.005 µM): 0.366
- relative viability (EKVX; first compound 0.01581 µM): 0.403
- relative viability (EKVX; first compound 0.05 µM): 0.296
- relative viability (EKVX; first compound 0.5 µM): 0.207
- relative viability (H3255; first compound 0.005 µM): 0.33
- relative viability (H3255; first compound 0.01581 µM): 0.32
- relative viability (H3255; first compound 0.05 µM): 0.281
- relative viability (H3255; first compound 0.1581 µM): 0.265
- relative viability (H3255; first compound 0.5 µM): 0.261
- relative viability (HCC-15; first compound 0.005 µM): 0.743
- relative viability (HCC-15; first compound 0.01581 µM): 0.673
- relative viability (HCC-15; first compound 0.05 µM): 0.835
- relative viability (HCC-15; first compound 0.1581 µM): 0.671
- relative viability (HCC-15; first compound 0.5 µM): 0.514
- relative viability (HCC-827; first compound 0.005 µM): 0.347
- relative viability (HCC-827; first compound 0.01581 µM): 0.317
- relative viability (HCC-827; first compound 0.05 µM): 0.19
- relative viability (HCC-827; first compound 0.1581 µM): 0.173
- relative viability (HCC-827; first compound 0.5 µM): 0.14
- relative viability (LCLC-97TM1; first compound 0.005 µM): 0.186
- relative viability (LCLC-97TM1; first compound 0.01581 µM): 0.135
- relative viability (LCLC-97TM1; first compound 0.05 µM): 0.198
- relative viability (LCLC-97TM1; first compound 0.1581 µM): 0.124
- relative viability (LCLC-97TM1; first compound 0.5 µM): 0.0884
- relative viability (LK-2; first compound 0.005 µM): 0.634
- relative viability (LK-2; first compound 0.01581 µM): 0.267
- relative viability (LK-2; first compound 0.05 µM): 0.233
- relative viability (LK-2; first compound 0.1581 µM): 0.14
- relative viability (LK-2; first compound 0.5 µM): 0.107
- relative viability (NCI-H1355; first compound 0.005 µM): 0.595
- relative viability (NCI-H1355; first compound 0.01581 µM): 0.325
- relative viability (NCI-H1355; first compound 0.05 µM): 0.396
- relative viability (NCI-H1355; first compound 0.1581 µM): 0.28
- relative viability (NCI-H1355; first compound 0.5 µM): 0.232
- relative viability (NCI-H1650; first compound 0.005 µM): 0.317
- relative viability (NCI-H1650; first compound 0.01581 µM): 0.319
- relative viability (NCI-H1650; first compound 0.05 µM): 0.318
- relative viability (NCI-H1650; first compound 0.1581 µM): 0.163
- relative viability (NCI-H1650; first compound 0.5 µM): 0.186
- relative viability (NCI-H1734; first compound 0.005 µM): 0.305
- relative viability (NCI-H1734; first compound 0.01581 µM): 0.214
- relative viability (NCI-H1734; first compound 0.05 µM): 0.237
- relative viability (NCI-H1734; first compound 0.1581 µM): 0.153
- relative viability (NCI-H1734; first compound 0.5 µM): 0.155
- relative viability (NCI-H1755; first compound 0.005 µM): 0.428
- relative viability (NCI-H1755; first compound 0.01581 µM): 0.422
- relative viability (NCI-H1755; first compound 0.05 µM): 0.434
- relative viability (NCI-H1755; first compound 0.1581 µM): 0.377
- relative viability (NCI-H1755; first compound 0.5 µM): 0.414
- relative viability (NCI-H1975; first compound 0.005 µM): 0.453
- relative viability (NCI-H1975; first compound 0.01581 µM): 0.574
- relative viability (NCI-H1975; first compound 0.05 µM): 0.46
- relative viability (NCI-H1975; first compound 0.1581 µM): 0.283
- relative viability (NCI-H1975; first compound 0.5 µM): 0.212
- relative viability (NCI-H2228; first compound 0.005 µM): 0.445
- relative viability (NCI-H2228; first compound 0.01581 µM): 0.343
- relative viability (NCI-H2228; first compound 0.05 µM): 0.215
- relative viability (NCI-H2228; first compound 0.1581 µM): 0.131
- relative viability (NCI-H2228; first compound 0.5 µM): 0.116
- relative viability (NCI-H2342; first compound 0.005 µM): 0.525
- relative viability (NCI-H2342; first compound 0.01581 µM): 0.557
- relative viability (NCI-H2342; first compound 0.05 µM): 0.502
- relative viability (NCI-H2342; first compound 0.1581 µM): 0.467
- relative viability (NCI-H2342; first compound 0.5 µM): 0.435
- relative viability (NCI-H2405; first compound 0.005 µM): 0.518
- relative viability (NCI-H2405; first compound 0.01581 µM): 0.449
- relative viability (NCI-H2405; first compound 0.05 µM): 0.367
- relative viability (NCI-H2405; first compound 0.1581 µM): 0.275
- relative viability (NCI-H2405; first compound 0.5 µM): 0.234
- relative viability (NCI-H322M; first compound 0.005 µM): 0.414
- relative viability (NCI-H322M; first compound 0.01581 µM): 0.492
- relative viability (NCI-H322M; first compound 0.05 µM): 0.42
- relative viability (NCI-H322M; first compound 0.1581 µM): 0.385
- relative viability (NCI-H322M; first compound 0.5 µM): 0.383
- relative viability (NCI-H520; first compound 0.005 µM): 0.234
- relative viability (NCI-H520; first compound 0.01581 µM): 0.223
- relative viability (NCI-H520; first compound 0.05 µM): 0.199
- relative viability (NCI-H520; first compound 0.1581 µM): 0.177
- relative viability (NCI-H520; first compound 0.5 µM): 0.201
- relative viability (NCI-H661; first compound 0.005 µM): 0.429
- relative viability (NCI-H661; first compound 0.01581 µM): 0.393
- relative viability (NCI-H661; first compound 0.05 µM): 0.377
- relative viability (NCI-H661; first compound 0.1581 µM): 0.353
- relative viability (NCI-H661; first compound 0.5 µM): 0.251
- relative viability (PC-14; first compound 0.005 µM): 0.432
- relative viability (PC-14; first compound 0.01581 µM): 0.366
- relative viability (PC-14; first compound 0.05 µM): 0.365
- relative viability (PC-14; first compound 0.1581 µM): 0.0885
- relative viability (PC-14; first compound 0.5 µM): 0.0651
- relative viability (PC-3 [JPC-3]; first compound 0.005 µM): 0.546
- relative viability (PC-3 [JPC-3]; first compound 0.01581 µM): 0.479
- relative viability (PC-3 [JPC-3]; first compound 0.05 µM): 0.489
- relative viability (PC-3 [JPC-3]; first compound 0.1581 µM): 0.459
- relative viability (PC-3 [JPC-3]; first compound 0.5 µM): 0.463
- relative viability (RERF-LC-KJ; first compound 0.005 µM): 0.858
- relative viability (RERF-LC-KJ; first compound 0.01581 µM): 0.882
- relative viability (RERF-LC-KJ; first compound 0.05 µM): 0.819
- relative viability (RERF-LC-KJ; first compound 0.1581 µM): 0.517
- relative viability (RERF-LC-KJ; first compound 0.5 µM): 0.41
